Experimental data as given in patent US7521442B2, “Cyclopropyl fused indolobenzazepine HCV NS5B inhibitors” (Bristol-Myers Squibb Company, priority 2006, dated 2009).
Where two headings read alike, the source gives them in different places.

Tests used:
[1] = target: T1, HCV NS5B RdRp genotype 1b (Hepatitis C virus genotype 1b, UniProt Q9WMX2); experiment: Modified HCV NS5B RdRp enzyme assay (preincubation protocol); type: biochemical
T1 construct: The protein was expressed with an 18 amino acid C-terminal truncation to enhance the solubility; made in house; host or cells: E. coli BL21(DE3), pET21a
Experimental: HCV NS5B RdRp cloning, expression, and purification. The cDNA encoding the NS5B protein of HCV, genotype 1b, was cloned into the pET21a expression vector. The protein was expressed with an 18 amino acid C-terminal truncation to enhance the solubility. The E. coli competent cell line BL21(DE3) was used for expression of the protein. Cultures were grown at 37° C. for ˜4 hours until the cultures reached an optical density of 2.0 at 600 nm. The cultures were cooled to 20° C. and induced with 1 mM IPTG. Fresh ampicillin was added to a final concentration of 50 μg/ml and the cells were grown overnight at 20° C.
Cell pellets (3 L) were lysed for purification to yield 15-24 mgs of purified NS5B. The lysis buffer consisted of 20 mM Tris-HCl, pH 7.4, 500 mM NaCl, 0.5% triton X-100, 1 mM DTT, 1 mM EDTA, 20% glycerol, 0.5 mg/ml lysozyme, 10 mM MgCl2, 15 μg/ml deoxyribonuclease I, and Complete TM protease inhibitor tablets (Roche). After addition of the lysis buffer, frozen cell pellets were resuspended using a tissue homogenizer. To reduce the viscosity of the sample, aliquots of the lysate were sonicated on ice using a microtip attached to a Branson sonicator. The sonicated lysate was centrifuged at 100,000×g for 1 hr at 4° C. and filtered through a 0.2 μm filter unit (Corning).
The protein was purified using three sequential chromatography steps: Heparin sepharose CL-6B, polyU sepharose 4B, and Hitrap SP sepharose (Pharmacia). The chromatography buffers were identical to the lysis buffer but contained no lysozyme, deoxyribonuclease I, MgCl2 or protease inhibitor and the NaCl concentration of the buffer was adjusted according to the requirements for charging the protein onto the column. Each column was eluted with a NaCl gradient which varied in length from 5-50 column volumes depending on the column type. After the final chromatography step, the resulting purity of the enzyme is >90% based on SDS-PAGE analysis. The enzyme was aliquoted and stored at −80° C.
Standard HCV NS5B RdRp enzyme assay. HCV RdRp genotype 1b assays were run in a final volume of 60 μl in 96 well plates (Costar 3912). The assay buffer is composed of 20 mM Hepes, pH 7.5, 2.5 mM KCl, 2.5 mM MgCl2, 1 mM DTT, 1.6 U RNAse inhibitor (Promega N2515), 0.1 mg/ml BSA (Promega R3961), and 2% glycerol. All compounds were serially diluted (3-fold) in DMSO and diluted further in water such that the final concentration of DMSO in the assay was 2%. HCV RdRp genotype 1b enzyme was used at a final concentration of 28 nM. A polyA template was used at 6 nM, and a biotinylated oligo-dT12 primer was used at 180 nM final concentration. Template was obtained commercially (Amersham 27-4110). Biotinylated primer was prepared by Sigma Genosys. 3H-UTP was used at 0.6 μCi (0.29 μM total UTP). Reactions were initiated by the addition of enzyme, incubated at 30° C. for 60 min, and stopped by adding 25 μl of 50 mM EDTA containing SPA beads (4 μg/μl, Amersham RPNQ 0007). Plates were read on a Packard Top Count NXT after >1 hr incubation at room temperature.
Modified HCV NS5B RdRp enzyme assay. A modified enzyme assay was performed essentially as described for the standard enzyme assay except for the following: The biotinylated oligo dT12 primer was precaptured on streptavidin-coated SPA beads by mixing primer and beads in assay buffer and incubating at room temperature for one hour. Unbound primer was removed after centrifugation. The primer-bound beads were resuspended in 20 mM Hepes buffer, pH 7.5 and used in the assay at final concentrations of 20 nM primer and 0.67 μg/μl beads. Order of addition in the assay: enzyme (14 nM) was added to diluted compound followed by the addition of a mixture of template (0.2 nM), 3H-UTP (0.6 μCi, 0.29 μM), and primer-bound beads, to initiate the reaction; concentrations given are final. Reactions were allowed to proceed for 4 hours at 30° C.
IC50 values for compounds were determined using seven different [I]. […]

[2] = tested on: HCV replicon cells; experiment: HCV replicon FRET assay; type: cell-based
Excerpt: FRET Assay Preparation. To perform the HCV FRET screening assay, 96-well cell culture plates were used. The FRET peptide (Anaspec, Inc.) (Taliani et al., Anal. Biochem. 1996, 240, 60-67) contains a fluorescence donor, EDANS, near one end of the peptide and an acceptor, DABCYL, near the other end. The fluorescence of the peptide is quenched by […] resonance energy transfer (RET) between the donor and the acceptor, but as the NS3 protease cleaves the peptide the products are released from RET quenching and the fluorescence of the donor becomes apparent. The assay reagent was made as follows: 5× cell Luciferase cell culture lysis reagent from Promega (#E153A) diluted to 1× with dH2O, NaCl added to 150 mM final, the FRET peptide diluted to 20 uM final from a 2 mM stock.
To prepare plates, HCV replicon cells, with or without a Renilla luciferase reporter gene, were trypsinized and placed into each well of a 96-well plate with titrated test compounds added in columns 3 through 12; columns 1 and 2 contained a control compound (HCV protease inhibitor), and the bottom row contained cells without compound. The plates were then placed in a CO2 incubator at 37° C.
Assays. Subsequent to addition of the test compounds described above (FRET Assay Preparation), at various times the plate was removed and Alamar blue solution (Trek Diagnostics, #00-100) was added per well as a measure of cellular toxicity. After reading in a Cytoflour 4000 instrument (PE Biosystems), plates were rinsed with PBS and then used for FRET assay by the addition of 30 ul of the FRET peptide assay reagent described above (FRET Assay Preparation) per well. The plate was then placed into the Cytoflour 4000 instrument which had been set to 340 excite/490 emission, automatic mode for 20 cycles and the plate read in a kinetic mode. Typically, the signal to noise using an endpoint analysis after the reads was at least three-fold. Alternatively, after Alamar blue reading, plates were rinsed with PBS, 50 ul of DMEM (high glucose) without phenol red was added and plates were then used for luciferase assay using the Promega Dual-Glo Luciferase Assay System.
Compound analysis was determined by quantification of the relative HCV replicon inhibition and the relative cytotoxicity values. To calculate cytoxicity values, the average Alamar Blue fluorescence signals from the control wells were set as 100% non-toxic. The individual signals in each of the compound test wells were then divided by the average control signal and multiplied by 100% to determine […]. To calculate the HCV replicon inhibition values, an average background value was obtained from the two wells containing the highest amount of HCV protease inhibitor at the end of the assay period. These numbers were similar to those obtained from naive Huh-7 cells.
The background numbers were then subtracted from the average signal obtained from the control wells and this number was used as 100% activity. The individual signals in each of the compound test wells were then divided by the averaged control values after background subtraction and multiplied by 100% to determine percent activity. EC50 values for a protease inhibitor titration were calculated as the concentration which caused a 50% reduction in FRET or luciferase activity. The two numbers generated for the compound plate, percent cytoxicity and percent activity were used to determine compounds of interest for further analysis.

T1 sequence (Q9WMX2 2420-2992): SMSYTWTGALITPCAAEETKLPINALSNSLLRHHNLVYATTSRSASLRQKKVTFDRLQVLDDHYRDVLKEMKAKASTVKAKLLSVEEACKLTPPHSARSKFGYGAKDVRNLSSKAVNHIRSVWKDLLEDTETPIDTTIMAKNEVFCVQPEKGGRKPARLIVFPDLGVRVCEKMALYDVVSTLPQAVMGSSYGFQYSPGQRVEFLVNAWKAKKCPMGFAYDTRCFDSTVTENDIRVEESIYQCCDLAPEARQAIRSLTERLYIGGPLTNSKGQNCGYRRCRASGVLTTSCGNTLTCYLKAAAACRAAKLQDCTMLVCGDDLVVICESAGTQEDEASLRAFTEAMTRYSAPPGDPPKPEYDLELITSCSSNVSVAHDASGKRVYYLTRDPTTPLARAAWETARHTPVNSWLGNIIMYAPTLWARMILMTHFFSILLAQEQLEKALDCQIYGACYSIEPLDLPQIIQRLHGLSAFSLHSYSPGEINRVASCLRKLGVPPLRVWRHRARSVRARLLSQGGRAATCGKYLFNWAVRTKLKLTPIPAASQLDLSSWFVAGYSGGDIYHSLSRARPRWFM

SMILES	IC50 [1] [nM]	EC50 ([2]; Hepatitis C virus) [nM]	EC50 ([2]; Hepatitis C virus, FRET assay, read-out: EC50) [nM]	EC50 ([2]; FRET assay) [nM]
COc1ccc2c(c1)C1CC1(C(=O)N1CC(O)C1)Cn1c-2c(C2CCCCC2)c2ccc(C(=O)NS(=O)(=O)N(C)C)cc21 (stereo not shown) [drawing 17]	1 to 500	1 to 500	–	–
COc1ccc2c(c1)C1CC1(C(=O)N1CC(O)C1)Cn1c-2c(C2CCCCC2)c2ccc(C(=O)NS(=O)(=O)N(C)C)cc21 (stereo not shown) [drawing 28]	1 to 500	–	–	–
COc1ccc2c(c1)C1CC1(C(=O)N1CC(O)(c3ccccc3)C1)Cn1c-2c(C2CCCCC2)c2ccc(C(=O)NS(=O)(=O)N(C)C)cc21 (stereo not shown)	1 to 500	1 to 500	–	–
COc1ccc2c(c1)C1CC1(C(=O)N1CC(O)(c3ccc(F)cc3)C1)Cn1c-2c(C2CCCCC2)c2ccc(C(=O)NS(=O)(=O)N(C)C)cc21 (stereo not shown)	1 to 500	1 to 500	–	–
COc1ccc2c(c1)C1CC1(C(=O)N1CC(O)C1)Cn1c-2c(C2CCCCC2)c2ccc(C(=O)NS(=O)(=O)C3CC3)cc21 (stereo not shown) [drawing 16]	1 to 500	–	1 to 500	–
COc1ccc2c(c1)C1CC1(C(=O)N1CC(O)(C(F)(F)F)C1)Cn1c-2c(C2CCCCC2)c2ccc(C(=O)NS(=O)(=O)N(C)C)cc21 (stereo not shown) [drawing 25]	1 to 500	–	–	1 to 500
COc1ccc2c(c1)C1CC1(C(=O)N1CC(O)(C(C)C)C1)Cn1c-2c(C2CCCCC2)c2ccc(C(=O)NS(=O)(=O)N(C)C)cc21 (stereo not shown)	1 to 500	1 to 500	–	–
COc1ccc2c(c1)C1CC1(C(=O)N1CC(O)C1)Cn1c-2c(C2CCCCC2)c2ccc(C(=O)NS(=O)(=O)C3CC3)cc21 (stereo not shown) [drawing 27]	1 to 500	–	–	–
COc1ccc2c(c1)C1CC1(C(=O)N1CC(O)(C3CC3)C1)Cn1c-2c(C2CCCCC2)c2ccc(C(=O)NS(=O)(=O)N(C)C)cc21 (stereo not shown) [drawing 24]	1 to 500	–	–	1 to 500
COc1ccc2c(c1)C1CC1(C(=O)N1CC(O)(C(F)(F)F)C1)Cn1c-2c(C2CCCCC2)c2ccc(C(=O)NS(=O)(=O)N(C)C)cc21 (stereo not shown) [drawing 23]	1 to 500	1 to 500	–	–
COc1ccc2c(c1)C1CC1(C(=O)N1CC(O)(C3CC3)C1)Cn1c-2c(C2CCCCC2)c2ccc(C(=O)NS(=O)(=O)N(C)C)cc21 (stereo not shown) [drawing 21]	1 to 500	1 to 500	–	–
COc1ccc2c(c1)C1CC1(C(=O)N1CC(C)(O)C1)Cn1c-2c(C2CCCCC2)c2ccc(C(=O)NS(=O)(=O)N(C)C)cc21 (stereo not shown)	< 20	1 to 500	–	–
